According to doi:10.1101/2023.11.24.568596v1 (biorxiv, 2023):
Blank lines part the entries; values can stand above or below the molecule they belong to.

Legend:
Conditions in all cases: binder
Wnk1 = Wnk1 (Homo sapiens, UniProt Q9H4A3)
SRPK1 = SRPK1 (Homo sapiens, UniProt Q96SB4)
ULK3 = target: T1, ULK3 (Homo sapiens, UniProt Q6PHR2)
T1 sequence (Q6PHR2 1-472): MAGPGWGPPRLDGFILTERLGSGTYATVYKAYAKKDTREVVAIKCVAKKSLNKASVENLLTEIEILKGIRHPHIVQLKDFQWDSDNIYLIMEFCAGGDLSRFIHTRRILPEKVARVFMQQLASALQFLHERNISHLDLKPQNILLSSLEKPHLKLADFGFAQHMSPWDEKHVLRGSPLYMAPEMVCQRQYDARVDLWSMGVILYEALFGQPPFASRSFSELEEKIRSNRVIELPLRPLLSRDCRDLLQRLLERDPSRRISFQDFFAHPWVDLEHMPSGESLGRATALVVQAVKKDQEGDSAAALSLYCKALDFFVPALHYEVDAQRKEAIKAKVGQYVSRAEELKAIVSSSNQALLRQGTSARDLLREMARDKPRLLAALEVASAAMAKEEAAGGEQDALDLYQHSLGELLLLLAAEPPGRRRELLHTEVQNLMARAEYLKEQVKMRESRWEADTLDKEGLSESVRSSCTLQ

TTK = target: T2, TTK (Homo sapiens, UniProt P33981)
T2 sequence (P33981 1-857): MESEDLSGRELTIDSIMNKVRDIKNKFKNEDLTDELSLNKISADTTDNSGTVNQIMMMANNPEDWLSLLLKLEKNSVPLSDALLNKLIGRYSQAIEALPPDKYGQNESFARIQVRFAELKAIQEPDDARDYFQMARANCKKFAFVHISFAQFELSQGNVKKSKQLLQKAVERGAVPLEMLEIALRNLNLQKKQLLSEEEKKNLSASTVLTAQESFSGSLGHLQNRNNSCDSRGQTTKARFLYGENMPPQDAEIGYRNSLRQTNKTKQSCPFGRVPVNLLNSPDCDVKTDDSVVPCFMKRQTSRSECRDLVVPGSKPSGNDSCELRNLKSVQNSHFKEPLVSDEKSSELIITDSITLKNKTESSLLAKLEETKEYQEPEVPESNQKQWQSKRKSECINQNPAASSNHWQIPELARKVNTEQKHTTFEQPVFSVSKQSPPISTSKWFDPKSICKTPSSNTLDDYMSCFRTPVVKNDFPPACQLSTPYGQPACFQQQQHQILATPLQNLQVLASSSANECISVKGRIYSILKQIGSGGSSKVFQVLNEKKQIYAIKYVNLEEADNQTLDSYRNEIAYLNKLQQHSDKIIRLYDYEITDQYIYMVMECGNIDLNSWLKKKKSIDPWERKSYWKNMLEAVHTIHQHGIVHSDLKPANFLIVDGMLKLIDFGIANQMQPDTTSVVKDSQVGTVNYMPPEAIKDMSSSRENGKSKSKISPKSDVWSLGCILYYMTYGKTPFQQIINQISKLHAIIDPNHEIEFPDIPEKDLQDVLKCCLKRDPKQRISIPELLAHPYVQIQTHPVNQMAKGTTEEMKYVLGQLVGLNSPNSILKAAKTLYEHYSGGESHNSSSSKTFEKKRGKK

SRC = SRC (Homo sapiens, UniProt P12931)
Sequence of SRC (P12931 whole entry): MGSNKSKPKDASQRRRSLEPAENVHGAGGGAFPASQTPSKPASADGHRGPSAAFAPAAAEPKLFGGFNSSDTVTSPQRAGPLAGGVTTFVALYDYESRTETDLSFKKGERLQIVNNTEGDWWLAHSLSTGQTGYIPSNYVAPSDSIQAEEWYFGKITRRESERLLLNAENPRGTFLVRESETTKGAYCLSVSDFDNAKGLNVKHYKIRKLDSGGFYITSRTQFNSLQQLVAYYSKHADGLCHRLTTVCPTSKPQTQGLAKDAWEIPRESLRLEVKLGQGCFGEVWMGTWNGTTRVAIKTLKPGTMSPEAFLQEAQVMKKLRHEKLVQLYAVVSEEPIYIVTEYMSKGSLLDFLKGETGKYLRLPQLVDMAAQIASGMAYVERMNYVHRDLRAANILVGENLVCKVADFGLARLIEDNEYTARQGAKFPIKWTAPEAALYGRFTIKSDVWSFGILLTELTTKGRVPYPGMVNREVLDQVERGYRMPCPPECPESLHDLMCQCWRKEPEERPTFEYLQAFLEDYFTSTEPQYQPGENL

SLK = SLK (Homo sapiens, UniProt Q9H2G2)
Sequence of SLK (Q9H2G2 whole entry): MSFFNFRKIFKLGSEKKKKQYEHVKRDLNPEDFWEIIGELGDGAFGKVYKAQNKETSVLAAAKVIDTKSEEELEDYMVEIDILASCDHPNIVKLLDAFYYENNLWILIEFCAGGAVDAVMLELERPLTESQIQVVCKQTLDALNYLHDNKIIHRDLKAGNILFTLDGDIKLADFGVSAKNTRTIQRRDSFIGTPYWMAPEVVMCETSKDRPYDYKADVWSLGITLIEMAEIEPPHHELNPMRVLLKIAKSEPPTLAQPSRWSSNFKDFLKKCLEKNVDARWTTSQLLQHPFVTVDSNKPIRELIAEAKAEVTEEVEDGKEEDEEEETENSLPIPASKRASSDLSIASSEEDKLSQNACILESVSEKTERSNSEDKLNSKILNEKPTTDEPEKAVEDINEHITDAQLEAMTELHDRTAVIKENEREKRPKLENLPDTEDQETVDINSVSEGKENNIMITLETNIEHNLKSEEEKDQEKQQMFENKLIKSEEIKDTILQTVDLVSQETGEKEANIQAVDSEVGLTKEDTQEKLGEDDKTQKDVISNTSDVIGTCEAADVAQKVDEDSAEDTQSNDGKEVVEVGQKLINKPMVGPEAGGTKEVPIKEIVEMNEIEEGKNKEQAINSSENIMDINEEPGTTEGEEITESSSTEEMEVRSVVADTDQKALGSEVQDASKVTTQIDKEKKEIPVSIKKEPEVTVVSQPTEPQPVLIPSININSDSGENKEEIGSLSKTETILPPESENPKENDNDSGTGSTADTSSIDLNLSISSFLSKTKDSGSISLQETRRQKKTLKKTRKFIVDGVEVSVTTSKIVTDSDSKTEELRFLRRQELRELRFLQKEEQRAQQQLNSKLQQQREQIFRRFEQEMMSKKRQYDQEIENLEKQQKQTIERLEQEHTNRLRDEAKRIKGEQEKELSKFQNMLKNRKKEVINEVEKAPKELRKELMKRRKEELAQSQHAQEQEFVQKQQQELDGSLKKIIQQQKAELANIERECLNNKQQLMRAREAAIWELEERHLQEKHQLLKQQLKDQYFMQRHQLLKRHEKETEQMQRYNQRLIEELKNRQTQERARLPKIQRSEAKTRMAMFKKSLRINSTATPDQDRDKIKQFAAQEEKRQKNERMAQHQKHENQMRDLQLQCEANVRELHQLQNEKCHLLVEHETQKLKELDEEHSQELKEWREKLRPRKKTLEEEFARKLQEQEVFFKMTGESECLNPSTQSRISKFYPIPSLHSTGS

VRK1 = target: T3, VRK1 (Homo sapiens, UniProt Q99986)
T3 sequence (Q99986 1-396): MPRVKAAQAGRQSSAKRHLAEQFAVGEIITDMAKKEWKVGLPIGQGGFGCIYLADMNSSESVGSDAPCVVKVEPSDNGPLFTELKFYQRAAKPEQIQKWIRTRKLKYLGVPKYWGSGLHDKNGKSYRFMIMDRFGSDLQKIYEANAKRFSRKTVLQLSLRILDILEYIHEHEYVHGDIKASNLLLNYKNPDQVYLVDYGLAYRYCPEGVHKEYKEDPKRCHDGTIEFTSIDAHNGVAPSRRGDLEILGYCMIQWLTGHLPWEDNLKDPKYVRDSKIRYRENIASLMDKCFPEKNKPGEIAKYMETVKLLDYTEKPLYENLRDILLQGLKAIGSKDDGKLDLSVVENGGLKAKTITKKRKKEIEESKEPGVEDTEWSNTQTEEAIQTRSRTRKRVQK

STLK3 = STLK3 (Homo sapiens, UniProt Q9UEW8)
MST2 = target: T4, MST2 (Homo sapiens, UniProt Q13188)
T4 sequence (Q13188 1-491): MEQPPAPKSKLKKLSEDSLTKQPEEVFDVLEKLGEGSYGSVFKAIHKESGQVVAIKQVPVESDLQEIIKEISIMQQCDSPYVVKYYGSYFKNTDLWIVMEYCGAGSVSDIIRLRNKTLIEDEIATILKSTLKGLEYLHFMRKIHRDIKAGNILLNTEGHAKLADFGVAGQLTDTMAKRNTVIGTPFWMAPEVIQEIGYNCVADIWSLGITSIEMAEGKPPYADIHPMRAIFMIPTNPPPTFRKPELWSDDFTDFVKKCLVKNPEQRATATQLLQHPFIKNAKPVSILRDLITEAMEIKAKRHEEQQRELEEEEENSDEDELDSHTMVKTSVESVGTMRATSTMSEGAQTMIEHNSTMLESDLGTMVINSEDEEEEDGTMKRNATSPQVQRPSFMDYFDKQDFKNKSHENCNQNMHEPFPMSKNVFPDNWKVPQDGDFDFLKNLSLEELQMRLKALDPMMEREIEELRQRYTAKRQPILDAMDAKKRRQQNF

Sequence of SRPK1 (Q96SB4 whole entry): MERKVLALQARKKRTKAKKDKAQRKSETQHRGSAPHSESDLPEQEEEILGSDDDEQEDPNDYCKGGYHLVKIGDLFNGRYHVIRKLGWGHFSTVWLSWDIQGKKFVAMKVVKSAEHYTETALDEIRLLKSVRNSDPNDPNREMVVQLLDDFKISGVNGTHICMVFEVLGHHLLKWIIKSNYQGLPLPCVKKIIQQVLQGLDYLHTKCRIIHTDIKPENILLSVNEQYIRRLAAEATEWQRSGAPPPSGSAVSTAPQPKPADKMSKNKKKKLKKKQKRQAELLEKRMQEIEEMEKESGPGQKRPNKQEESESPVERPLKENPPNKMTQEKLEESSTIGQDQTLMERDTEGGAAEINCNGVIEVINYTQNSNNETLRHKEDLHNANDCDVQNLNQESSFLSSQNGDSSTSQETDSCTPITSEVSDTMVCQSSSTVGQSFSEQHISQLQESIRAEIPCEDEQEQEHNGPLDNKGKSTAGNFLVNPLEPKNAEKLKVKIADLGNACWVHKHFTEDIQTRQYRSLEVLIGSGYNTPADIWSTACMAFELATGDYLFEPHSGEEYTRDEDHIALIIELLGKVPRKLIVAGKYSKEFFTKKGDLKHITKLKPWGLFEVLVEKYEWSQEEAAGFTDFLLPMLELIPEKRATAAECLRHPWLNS
Sequence of Wnk1 (Q9H4A3 whole entry): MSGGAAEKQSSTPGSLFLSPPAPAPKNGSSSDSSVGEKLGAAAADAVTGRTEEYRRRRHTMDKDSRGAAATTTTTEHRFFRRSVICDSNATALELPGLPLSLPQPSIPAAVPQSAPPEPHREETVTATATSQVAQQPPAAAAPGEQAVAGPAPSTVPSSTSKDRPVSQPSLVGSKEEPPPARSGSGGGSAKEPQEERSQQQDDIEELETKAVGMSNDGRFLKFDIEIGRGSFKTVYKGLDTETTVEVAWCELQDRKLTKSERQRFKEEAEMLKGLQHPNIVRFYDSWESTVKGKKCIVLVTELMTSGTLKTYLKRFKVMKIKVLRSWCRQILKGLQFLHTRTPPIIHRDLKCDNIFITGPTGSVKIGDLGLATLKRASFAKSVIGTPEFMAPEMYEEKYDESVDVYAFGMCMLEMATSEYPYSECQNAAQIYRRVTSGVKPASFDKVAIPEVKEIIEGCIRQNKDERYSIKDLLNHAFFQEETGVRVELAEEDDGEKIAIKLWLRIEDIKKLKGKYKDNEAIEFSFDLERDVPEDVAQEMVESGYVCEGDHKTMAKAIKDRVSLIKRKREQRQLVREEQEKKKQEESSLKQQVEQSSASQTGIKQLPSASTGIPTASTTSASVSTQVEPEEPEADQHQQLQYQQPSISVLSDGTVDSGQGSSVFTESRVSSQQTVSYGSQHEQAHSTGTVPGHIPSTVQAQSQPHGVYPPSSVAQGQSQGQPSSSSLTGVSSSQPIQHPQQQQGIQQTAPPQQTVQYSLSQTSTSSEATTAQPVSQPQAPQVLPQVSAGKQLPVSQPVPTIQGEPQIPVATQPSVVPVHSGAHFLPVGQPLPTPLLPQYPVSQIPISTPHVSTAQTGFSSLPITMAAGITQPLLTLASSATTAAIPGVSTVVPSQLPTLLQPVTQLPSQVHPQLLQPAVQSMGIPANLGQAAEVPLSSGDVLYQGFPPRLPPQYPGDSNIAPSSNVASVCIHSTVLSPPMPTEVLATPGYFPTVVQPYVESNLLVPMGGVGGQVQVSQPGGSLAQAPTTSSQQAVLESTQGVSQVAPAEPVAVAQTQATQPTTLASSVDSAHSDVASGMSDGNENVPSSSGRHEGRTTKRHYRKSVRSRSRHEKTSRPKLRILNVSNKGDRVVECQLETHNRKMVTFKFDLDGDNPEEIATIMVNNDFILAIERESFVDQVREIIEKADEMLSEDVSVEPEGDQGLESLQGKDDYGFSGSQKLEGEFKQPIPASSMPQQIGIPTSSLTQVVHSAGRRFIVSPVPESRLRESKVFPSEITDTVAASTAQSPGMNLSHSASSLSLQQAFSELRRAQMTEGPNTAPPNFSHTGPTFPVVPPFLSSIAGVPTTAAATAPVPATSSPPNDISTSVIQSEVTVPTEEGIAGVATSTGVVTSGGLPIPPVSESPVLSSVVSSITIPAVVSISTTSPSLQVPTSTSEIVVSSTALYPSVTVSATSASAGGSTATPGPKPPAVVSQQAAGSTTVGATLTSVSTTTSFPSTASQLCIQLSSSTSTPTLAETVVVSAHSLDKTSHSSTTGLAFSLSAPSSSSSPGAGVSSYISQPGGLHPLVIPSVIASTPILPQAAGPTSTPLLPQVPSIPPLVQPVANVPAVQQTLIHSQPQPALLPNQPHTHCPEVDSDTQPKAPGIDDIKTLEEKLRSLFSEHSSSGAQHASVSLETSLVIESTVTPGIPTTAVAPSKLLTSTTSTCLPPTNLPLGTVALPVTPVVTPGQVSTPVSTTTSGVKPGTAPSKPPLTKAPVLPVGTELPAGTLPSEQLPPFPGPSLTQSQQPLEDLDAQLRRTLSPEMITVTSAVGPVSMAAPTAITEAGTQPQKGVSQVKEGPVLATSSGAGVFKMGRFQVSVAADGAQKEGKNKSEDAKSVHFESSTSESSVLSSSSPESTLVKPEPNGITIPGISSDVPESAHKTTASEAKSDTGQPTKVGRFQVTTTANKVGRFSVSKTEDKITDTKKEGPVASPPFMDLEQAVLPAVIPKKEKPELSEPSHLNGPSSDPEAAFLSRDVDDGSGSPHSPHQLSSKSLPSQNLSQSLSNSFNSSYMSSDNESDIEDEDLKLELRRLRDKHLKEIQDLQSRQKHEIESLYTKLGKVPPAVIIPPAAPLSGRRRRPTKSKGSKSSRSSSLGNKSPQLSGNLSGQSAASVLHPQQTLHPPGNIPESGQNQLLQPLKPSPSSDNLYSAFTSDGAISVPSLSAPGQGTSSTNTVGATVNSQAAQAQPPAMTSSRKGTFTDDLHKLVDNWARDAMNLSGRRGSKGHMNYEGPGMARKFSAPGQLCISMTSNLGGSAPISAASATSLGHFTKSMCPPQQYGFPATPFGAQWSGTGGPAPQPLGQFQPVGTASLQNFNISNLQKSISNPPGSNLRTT

SMILES: CNc1ncc2cc(-c3ccc(-c4cccc(C)n4)cc3Cl)c(=O)n(CCCCN)c2n1 [compound 20, MRLW5]
ΔTm MRLW5 (20) (Wnk1): 1.7 °C
ΔTm MRLW5 (20) (SRPK1): -0.2 °C
ΔTm MRLW5 (20) (ULK3): 8.6 °C
ΔTm MRLW5 (20) (TTK): 2.7 °C
ΔTm MRLW5 (20) (SRC): 0.9 °C
ΔTm MRLW5 (20) (SLK): 9.1 °C
ΔTm MRLW5 (20) (VRK1): 0.0 °C
ΔTm MRLW5 (20) (STLK3): 1.8 °C

SMILES: CNc1ncc2cc(-c3ccc(-c4cccc(C)n4)cc3Cl)c(=O)n(CCC3CCNCC3)c2n1 [compound 22, 6-(2-Chloro-4-(6-methylpyridin-2-yl)phenyl)-2-(methylamino)-8-(2-(piperidin-4-yl)ethyl)pyrido[2,3-d]pyrimidin-7(8H)-one]
ΔTm 22 (Wnk1): 1.5 °C
ΔTm 22 (SRPK1): -0.2 °C
ΔTm 22 (ULK3): 9.7 °C
ΔTm 22 (TTK): 3.7 °C
ΔTm 22 (SRC): 0.6 °C
ΔTm 22 (SLK): 3.9 °C
ΔTm 22 (VRK1): -0.7 °C
ΔTm 22 (STLK3): -3.0 °C

SMILES: CNc1ncc2cc(-c3ccc(-c4cccc(C)n4)cc3Cl)c(=O)n(C[C@H]3CC[C@H](N)CC3)c2n1 [compound 23, 23]
ΔTm 23 (Wnk1): 2.1 °C
ΔTm 23 (SRPK1): -0.5 °C
ΔTm 23 (ULK3): 13.5 °C
ΔTm 23 (TTK): 3.5 °C
ΔTm 23 (SRC): 1.2 °C
ΔTm 23 (SLK): 8.3 °C
ΔTm 23 (VRK1): 0.5 °C
ΔTm 23 (STLK3): 3.3 °C

SMILES: Cc1cccc(-c2ccc(-c3cc4cnc(NC(CO)CO)nc4n(CCCCN)c3=O)c(Cl)c2)n1 [compound 24, 8-(4-Aminobutyl)-6-(2-chloro-4-(6-methylpyridin-2-yl)phenyl)-2-((1,3-dihydroxypropan-2-yl)amino)pyrido[2,3-d]pyrimidin-7(8H)-one]
ΔTm MR24 (24) (Wnk1): 0.2 °C
ΔTm MR24 (24) (SRPK1): -0.1 °C
ΔTm MR24 (24) (ULK3): 7.2 °C
ΔTm MR24 (24) (TTK): -3.0 °C
ΔTm MR24 (24) (SRC): 0.0 °C
ΔTm MR24 (24) (SLK): 1.9 °C
ΔTm MR24 (24) (VRK1): 0.4 °C
ΔTm MR24 (24) (STLK3): 9.1 °C
dTm MST2 (MST2): 4.6 °C

SMILES: Cc1cccc(-c2ccc(-c3cc4cnc(NCCCc5ccc(N)cc5)nc4n(CCCCN)c3=O)c(Cl)c2)n1 [compound 25, 8-(4-Aminobutyl)-2-((3-(4-aminophenyl)propyl)amino)-6-(2-chloro-4-(6-methylpyridin-2-yl)phenyl)pyrido[2,3-d]pyrimidin-7(8H)-one]
ΔTm 25 (Wnk1): 2.7 °C
ΔTm 25 (SRPK1): 0.1 °C
ΔTm 25 (ULK3): 11.1 °C
ΔTm 25 (TTK): 1.8 °C
ΔTm 25 (SRC): 1.0 °C
ΔTm 25 (SLK): 5.0 °C
ΔTm 25 (VRK1): 0.6 °C
ΔTm 25 (STLK3): 13.0 °C
dTm MST2 (MST2): 7.2 °C

SMILES: Cc1cccc(-c2ccc(-c3cc4cnc(NCCCN5CCOCC5)nc4n(CCCCN)c3=O)c(Cl)c2)n1 [compound 26, MR26]
ΔTm MR26 (26) (Wnk1): 1.0 °C
ΔTm MR26 (26) (SRPK1): 0.1 °C
ΔTm MR26 (26) (ULK3): 6.7 °C
ΔTm MR26 (26) (TTK): -0.2 °C
ΔTm MR26 (26) (SRC): 1.4 °C
ΔTm MR26 (26) (SLK): 2.3 °C
ΔTm MR26 (26) (VRK1): 0.4 °C
ΔTm MR26 (26) (STLK3): 10.4 °C
dTm MST2 (MST2): 5.9 °C

Further lines, results first:

ΔTm MR30 (27) (Wnk1): 0.8 °C
ΔTm MR30 (27) (SRPK1): -0.2 °C
ΔTm MR30 (27) (ULK3): 7.3 °C
ΔTm MR30 (27) (TTK): -0.3 °C
ΔTm MR30 (27) (SRC): -0.5 °C
ΔTm MR30 (27) (SLK): 2.6 °C
ΔTm MR30 (27) (VRK1): -0.1 °C
ΔTm MR30 (27) (STLK3): 10.0 °C
dTm MST2 (MST2): 2.2 °C
SMILES: Cc1cccc(-c2ccc(-c3cc4cnc(NCCCN5CCCC5=O)nc4n(CCCCN)c3=O)c(Cl)c2)n1 [compound 27, MR30]

ΔTm 28 (Wnk1): 2.8 °C
ΔTm 28 (SRPK1): 0.1 °C
ΔTm 28 (ULK3): 6.5 °C
ΔTm 28 (TTK): -11.0 °C
ΔTm 28 (SRC): 3.4 °C
ΔTm 28 (SLK): 4.5 °C
ΔTm 28 (VRK1): 0.8 °C
ΔTm 28 (STLK3): 10.4 °C
dTm MST2 (MST2): 10.2 °C
SMILES: Cc1cccc(-c2ccc(-c3cc4cnc(Nc5cc(C(F)(F)F)ccc5C)nc4n(CCCCN)c3=O)c(Cl)c2)n1 [compound 28, 8-(4-Aminobutyl)-6-(2-chloro-4-(6-methylpyridin-2-yl)phenyl)-2-((2-methyl-5-(trifluoromethyl)phenyl)amino)pyrido[2,3-d]pyrimidin-7(8H)-one]

dTm MST2 (MST2): 16.0 °C
SMILES: Cc1cccc(-c2ccc(-c3cc4cnc(Nc5ccc(F)c(CO)c5)nc4n(CCCCN)c3=O)c(Cl)c2)n1 [compound 33, 8-(4-Aminobutyl)-6-(2-chloro-4-(6-methylpyridin-2-yl)phenyl)-2-((4-fluoro-3-(hydroxymethyl)phenyl)amino)pyrido[2,3-d]pyrimidin-7(8H)-one]

dTm MST2 (MST2): 5.4 °C
SMILES: COc1ccc(O)c(Nc2ncc3cc(-c4ccc(-c5cccc(C)n5)cc4Cl)c(=O)n(CCCCN)c3n2)c1 [compound 34, 8-(4-Aminobutyl)-6-(2-chloro-4-(6-methylpyridin-2-yl)phenyl)-2-((2-hydroxy-5-methoxy-phenyl)amino)pyrido[2,3-d]pyrimidin-7(8H)-one]

dTm MST2 (MST2): 7.5 °C
SMILES: COc1cc(N2CCOCC2)ccc1Nc1ncc2cc(-c3ccc(-c4cccc(C)n4)cc3Cl)c(=O)n(CCCCN)c2n1 [compound 35, 8-(4-Aminobutyl)-6-(2-chloro-4-(6-methylpyridin-2-yl)phenyl)-2-((2-methoxy-4-morpholino-phenyl)amino)pyrido[2,3-d]pyrimidin-7(8H)-one]

dTm MST2 (MST2): 7.4 °C
SMILES: COc1cc(N2CCN(C)CC2)ccc1Nc1ncc2cc(-c3ccc(-c4cccc(C)n4)cc3Cl)c(=O)n(CCCCN)c2n1 [compound 36, 8-(4-Aminobutyl)-6-(2-chloro-4-(6-methylpyridin-2-yl)phenyl)-2-((2-methoxy-4-(4-methylpiperazin-1-yl)phenyl)amino)pyrido[2,3-d]pyrimidin-7(8H)-one]
